Data reported in US20080287406A1, “Compositions and methods for treating medical conditions” (priority 2007, published 2008).
Like-named read-outs stand apart in the source and are kept apart here.

Tests used:
CRP = CRP measurements in 14 week blinded, randomized study; assay type: in vivo, human; conditions: 3 mg Prednisolone + Placebo, N = 69, ITT (LOCF)
Protocol: CRP is an acute phase response protein whose production is stimulated by cytokines, particularly interleukin-6 (IL-6). The relationship between inflammatory processes and elevation in plasma CRP and pro-inflammatory cytokines is well known. Typically a serum CRP level of >3 mg/L is considered elevated. Serum CRP levels can be measured by standard techniques known in the art, e.g., ELISA assays (Kamiya Biomedical Co., Seattle, Wash.).
We conducted a 14 week blinded, randomized study including a split dose corticosteroid therapy or placebo, with regular CRP and inflammatory cytokine measurements. The study population had active rheumatoid arthritis.
(§1) Screening Visit • Day 1 (Baseline Visit)—Start of Run-In Period • Day 14 (±2 days)—End of Run-In Period/Start of Treatment Period • Day 42 (±2 days) • Day 70 (±2 days)—End of Treatment Period/Start of Withdrawal Period • Day 98 (±2 days)—End of Study
The powered study ended after these first 10 weeks. […] A schematic of the study design is shown below.

[1] = test system: active rheumatoid arthritis; conditions: 3 mg Prednisolone + Placebo, N = 69, ITT (LOCF)
Text: A visual analog scale (VAS) provides a measure of a one-dimensional quantity. A VAS generally utilizes a representation of distance, such as a picture of a line with hash marks drawn at regular distance intervals, e.g., ten 1-cm intervals. […] This procedure provides a simple and rapid approach to obtaining quantitative information about how the patient is experiencing pain. VAS scales can also be used, e.g., to measure fatigue. VAS scales and their use are described, e.g., in U.S. Pat. Nos. 6,709,406 and 6,432,937.
We conducted a 14 week blinded, randomized study including a split dose corticosteroid therapy or placebo, with regular CRP and inflammatory cytokine measurements. The study population had active rheumatoid arthritis. The subject must otherwise have been in good general health.
as §1
All eligible subjects received DMARD therapy in a stable dose. Subjects were evaluated for study eligibility at the Screening visit, which was conducted within 14 days before the first dose of study drug. The subject provided written informed consent to participate in the study before any Screening laboratory samples were collected or evaluations performed.
All subjects were given 3 mg prednisolone alone for 2 weeks (Run-In Period). Subjects were then randomized into treatment groups to additionally receive 10 mg paroxetine, 20 mg paroxetine or placebo tablets for 8 weeks (Combination Treatment Period). The powered study ended after these first 10 weeks. All subjects continued in an un-powered part of the study for an additional 4 weeks (Withdrawal Period). In this portion of the study, half of the subjects on 10 mg or 20 mg paroxetine plus 3 mg prednisolone stopped taking paroxetine, and instead took 3 mg prednisolone plus placebo, while the other half stopped taking prednisolone, and instead took either dose of paroxetine plus placebo. Similarly, half of the subjects on prednisolone plus placebo stopped the prednisolone, and instead took two placebo tablets, while the other half continued the regimen of 3 mg prednisolone plus placebo. A schematic of the study design is shown below.

SMILES: C[C@]12C=CC(=O)C=C1CC[C@@H]1[C@@H]2[C@@H](O)C[C@@]2(C)[C@H]1CC[C@]2(O)C(=O)CO [Prednisolone, prednisolone]
- CRP % Change from baseline, Mean (CRP; Day 14): 7.11%
- CRP Change from baseline, Mean (CRP; Day 14): −7.40
- CRP Value, Mean (CRP; Day 14): 11.42
- CRP % Change from baseline, Mean (CRP; Day 42): −17.67%
- CRP Change from baseline, Mean (CRP; Day 42): −8.61
- CRP Value, Mean (CRP; Day 42): 10.22
- CRP % Change from baseline, Mean (CRP; Day 70): −13.66%
- CRP Change from baseline, Mean (CRP; Day 70): −8.95
- CRP Value, Mean (CRP; Day 70): 9.88
- Patient Pain Assessment (VAS) Score % Change from baseline, Mean ([1]; Day 14): −13.65%
- Patient Pain Assessment (VAS) Score Change from baseline, Mean ([1]; Day 14): −7.73
- Patient Pain Assessment (VAS) Score Value, Mean ([1]; Day 14): 45.58
- Patient Pain Assessment (VAS) Score % Change from baseline, Mean ([1]; Day 42): −19.23%
- Patient Pain Assessment (VAS) Score Change from baseline, Mean ([1]; Day 42): −10.57
- Patient Pain Assessment (VAS) Score Value, Mean ([1]; Day 42): 42.74
- Patient Pain Assessment (VAS) Score % Change from baseline, Mean ([1]; Day 70): −17.84%
- Patient Pain Assessment (VAS) Score Change from baseline, Mean ([1]; Day 70): −12.28
- Patient Pain Assessment (VAS) Score Value, Mean ([1]; Day 70): 41.04
